Experimental data published in patent US5484934A, “Isothiazole derivatives, a process for production thereof and uses thereof” (Nihon Nohyaku Co., Ltd., priority 1992, dated 1996).

Columns and labels:
Phytophthora infestants = experiment: whole plant or invertebrate; type: in vivo; settings: 168 h; read-out: Controlling effect Pi (tomato late blight)
Rhizopus nigricans = experiment: Inhibition of hypha growth on malt extract agar, Rhizopus nigricans; settings: Rhizopus stolonifer, read-out: Controlling effect (growth inhibition rate) RHS
Protocol: (§1) Each preparation to be tested was added to malt extract agar medium to adjust the concentration to 50 ppm, and the resulting mixture was dispensed into Petri dishes. As an inoculum, a prepared mycerial tuft of each test fungus was punched out together with agar by means of a 4-mm-diameter cork borer and inoculated on medium. The incubation temperature was adjusted to 28±2° .C (or 18±2° C. in the case of Selupula lacrymas).
(§2) The diameter of mycerial tuft was measured 2 to 10 days after the inoculation, and the inhibition rate of hypha growth (the following equation) was measured.

Chaetomium globosum = experiment: Inhibition of hypha growth on malt extract agar, Chaetomium globosum; settings: read-out: Controlling effect (growth inhibition rate) CHG
Protocol: as §1, §2
(§3) The controlling effect was evaluated according to the following criterion.

Botrytis cinerea = experiment: Controlling effect (curing effect) on cucumber gray mold; type: in vivo; settings: 72 h, immersion of inoculated cotyledons, 15° C., read-out: Controlling effect Bc (cucumber gray mold)
Protocol: Controlling effect (curing effect) on cucumber gray mold The cotyledons of potted cucumber plants at the 1 leaf stage were cut off and each of them was inoculated with a mycelial tuft of gray mold fungus (Botrytis cinerea) cultured on PSA medium. After having been placed in a moist chamber at 15° C. for 24 hours, the cotyledons were immersed in a 200 ppm liquid chemical containing each compound of the present invention as active ingredient. […]

Coriolus versicolor = experiment: Inhibition of hypha growth on malt extract agar, Coriolus versicolor; type: cell-based; settings: Trametes versicolor, 28±2° C., 2 to 10 days, read-out: Controlling effect (growth inhibition rate) COV
Trichoderma viride = experiment: Inhibition of hypha growth on malt extract agar, Trichoderma viride; settings: read-out: Controlling effect (growth inhibition rate) TRV
Protocol: as §1, §2

Aspergillus niger = experiment: Inhibition of hypha growth on malt extract agar, Aspergillus niger; settings: read-out: Controlling effect (growth inhibition rate) ASN
Protocol: as §1, §2, §3

Fusarium oxysporum = experiment: Inhibition of hypha growth on malt extract agar, Fusarium oxysporum; settings: read-out: Controlling effect (growth inhibition rate) FUO
Protocol: as §1, §2, §3

Tyromyces palustris = experiment: Inhibition of hypha growth on malt extract agar, Tyromyces palustris; settings: read-out: Controlling effect (growth inhibition rate) TYP
Protocol: as §1, §2

Serpula lacrymans = experiment: Inhibition of hypha growth on malt extract agar, Serpula lacrymans; settings: read-out: Controlling effect (growth inhibition rate) SEL
Protocol: as §1, §2

[1] = test system: Pseudoperonospora cubensis; experiment: Controlling effect on cucumber Downy mildew; type: in vivo; settings: 168 h, 200 ppm spray, inoculation after 24 hours, read-out: Controlling effect Pc (cucumber downy mildew)
Alternaria mali = experiment: Inhibition of hypha growth on malt extract agar, Alternaria mali; settings: read-out: Controlling effect (growth inhibition rate) ALM
Protocol: as §1, §2, §3

Pyricularia oryzae = experiment: whole plant or invertebrate; type: in vivo; settings: 168 h, read-out: Controlling effect Ps (rice blast)
[2] = test system: Cladosporium cladosporioides; experiment: Inhibition of hypha growth on malt extract agar, Cladosporium cladosporioides; settings: read-out: Controlling effect (growth inhibition rate) CLC
Protocol: as §1, §2

SMILES | pest or weed control at 200 ppm (Phytophthora infestants) [%] | inhibition at 50 ppm (Rhizopus nigricans) [%] | inhibition at 50 ppm (Chaetomium globosum) [%] | pest or weed control at 200 ppm (Botrytis cinerea) [%] | inhibition at 50 ppm (Coriolus versicolor) [%] | inhibition at 50 ppm (Trichoderma viride) [%] | inhibition at 50 ppm (Aspergillus niger) [%] | inhibition at 50 ppm (Fusarium oxysporum) [%] | inhibition at 50 ppm (Tyromyces palustris) [%] | inhibition at 50 ppm (Serpula lacrymans) [%] | pest or weed control at 200 ppm [1] [%] | inhibition at 50 ppm (Alternaria mali) [%] | pest or weed control at 200 ppm (Pyricularia oryzae) [%] | inhibition at 50 ppm [2] [%]
N#Cc1c(O)nsc1S(=O)(=O)c1ccccc1 [Compound 1, 3-hydroxy-4-cyano-5-phenylsulfonylisothiazole] | 60 to 79 | 85 to 99 | 85 to 99 | 0 to 59 | 85 to 99 | 85 to 99 | 55 to 84 | 55 to 84 | 55 to 84 | 85 to 99 | 60 to 79 | 55 to 84 | 80 to 94 | 55 to 84
CCOC(=O)c1ccccc1S(=O)(=O)c1snc(O)c1C#N [Compound 5] | 80 to 94 |  |  | 0 to 59 |  |  |  |  |  |  | 60 to 79 |  | 60 to 79 | 
COc1nsc([S+](C)[O-])c1C#N (centres unmarked) [Compound 15, 3-methoxy-4-cyano-5-methylsulfoxyisothiazole] | 95 to 100 | 100 | 100 | 60 to 79 | 100 | 100 | 100 | 100 | 100 | 100 | 95 to 100 | 100 | 95 to 100 | 100
C#CCOc1nsc([S+](C)[O-])c1C#N (centres unmarked) [Compound 16] | 95 to 100 | 100 | 100 | 60 to 79 | 85 to 99 | 100 | 100 | 85 to 99 | 100 | 100 | 95 to 100 | 100 | 80 to 94 | 100
COc1nsc(S(C)(=O)=O)c1C#N [Compound 20, 3-methoxy-4-cyano-5-methylsulfonylisothiazole] | 95 to 100 | 100 | 100 | 60 to 79 | 100 | 100 | 100 | 100 | 100 | 100 | 95 to 100 | 100 | 95 to 100 | 100
CCOc1nsc(S(C)(=O)=O)c1C#N [Compound 21] | 95 to 100 |  |  | 60 to 79 |  |  |  |  |  |  | 95 to 100 |  | 95 to 100 | 
C=CCOc1nsc(S(C)(=O)=O)c1C#N [Compound 22] | 95 to 100 | 85 to 99 | 55 to 84 | 0 to 59 | 100 | 85 to 99 | 85 to 99 | 85 to 99 | 100 | 100 | 80 to 94 | 85 to 99 | 95 to 100 | 100
CCOc1nsc(S(=O)(=O)CC)c1C#N [Compound 23] | 95 to 100 |  |  | 60 to 79 |  |  |  |  |  |  | 95 to 100 |  | 95 to 100 | 
CS(=O)(=O)c1snc(OC(F)F)c1C#N [Compound 24, 3-difluoromethoxy-4-cyano-5-methylsulfonylisothiazole] | 95 to 100 | 85 to 99 | 55 to 84 | 0 to 59 | 100 | 100 | 100 | 85 to 99 | 100 | 100 | 95 to 100 | 100 | 95 to 100 | 100
CCS(=O)(=O)c1snc(OC(F)F)c1C#N [Compound 25] | 95 to 100 |  |  | 60 to 79 |  |  |  |  |  |  | 95 to 100 |  | 80 to 94 | 
CC(C)S(=O)(=O)c1snc(OC(F)F)c1C#N [Compound 27] | 95 to 100 |  |  | 0 to 59 |  |  |  |  |  |  | 80 to 94 |  | 95 to 100 | 
COc1nsc(S(=O)(=O)C(C)C)c1C#N [Compound 35] | 95 to 100 |  |  | 0 to 59 |  |  |  |  |  |  | 95 to 100 |  | 95 to 100 | 
CCS(=O)(=O)c1snc(OC)c1C#N [Compound 37] | 95 to 100 |  |  | 0 to 59 |  |  |  |  |  |  | 95 to 100 |  | 95 to 100 | 
CCOc1nsc(S(=O)(=O)C(C)C)c1C#N [Compound 38] | 95 to 100 |  |  | 60 to 79 |  |  |  |  |  |  | 95 to 100 |  | 95 to 100 | 
CC(C)Oc1nsc(S(C)(=O)=O)c1C#N [Compound 50] | 80 to 94 | 100 | 100 | 0 to 59 | 100 | 100 | 100 | 100 | 100 | 100 | 95 to 100 | 100 | 80 to 94 | 100
CCCCS(=O)(=O)c1snc(OC(C)C)c1C#N [Compound 52] | 95 to 100 |  |  | 60 to 79 |  |  |  |  |  |  | 95 to 100 |  | 80 to 94 | 
C#CCOc1nsc(S(=O)(=O)CC)c1C#N [Compound 58] | 95 to 100 |  |  | 0 to 59 |  |  |  |  |  |  | 95 to 100 |  | 80 to 94 | 
COc1nsc(S(=O)(=O)c2ccc(C)cc2)c1C#N [Compound 90, 3-methoxy-4-cyano-5-(4-methylphenyl) sulfonylisothiazole] | 95 to 100 |  |  | 60 to 79 |  |  |  |  |  |  | 95 to 100 |  | 95 to 100 | 
C#CCOc1nsc(S(=O)(=O)c2ccccc2)c1C#N [Compound 104] | 95 to 100 |  |  | 60 to 79 |  |  |  |  |  |  | 80 to 94 |  | 95 to 100 | 
C#CCOc1nsc(S(=O)(=O)c2ccc(Cl)cc2)c1C#N [Compound 120] | 95 to 100 |  |  | 60 to 79 |  |  |  |  |  |  | 95 to 100 |  | 95 to 100 | 
CCOc1nsc(S(=O)(=O)C(F)F)c1C#N [Compound 141] | 95 to 100 |  |  | 80 to 94 |  |  |  |  |  |  | 95 to 100 |  | 95 to 100 | 
CCC(C)Oc1nsc(S(=O)(=O)C(F)F)c1C#N (centres unmarked) [Compound 145] | 95 to 100 |  |  | 0 to 59 |  |  |  |  |  |  | 95 to 100 |  | 95 to 100 | 
